These are literature values, as cited in patent publication US6627427B1, “Heterologous production of 15-methyl-6-deoxyerthronolide B” (Kosan Biosciences, Inc., priority 1999, dated 2003).

For data set [1] the following is noted: statement with reference to PCT publications.
The next data set relates to Gram-positive pathogens. To be noted: including those carrying inducible MLS resistance and many S. pneumoniae and S. pyogenes strains carrying constitutive MLS resistance.

Regarding `CCC[C@H]1OC(=O)[C@H](C)[C@@H](O[C@@H]2C[C@@](C)(OC)[C@@H](O)[C@H](C)O2)[C@H](C)[C@@H](O[C@@H]2O[C@H](C)C[C@H](N(C)C)[C@H]2O)[C@](C)(O)C[C@@H](C)C(=O)[C@H](C)[C@@H](O)[C@]1(C)O` [Propyl erythromycin A, 15-methylerythromycin A], the antibiotic activity result in data set [1] was “potent antibiotic activity”.

Take `CC[C@H]1OC(=O)[C@H](C)C(=O)[C@H](C)[C@@H](O[C@@H]2O[C@H](C)C[C@H](N(C)C)[C@H]2O)[C@](C)(OC)C[C@@H](C)C(=O)[C@H](C)[C@H]2N(CCCCn3cnc(-c4cccnc4)c3)C(=O)O[C@]12C` [HMR 3647]: the “activity against Gram-positive pathogens” value with Gram-positive pathogens is “excellent activity”.

As to `CC[C@H]1OC(=O)[C@H](C)C(=O)[C@H](C)[C@@H](O[C@@H]2O[C@H](C)C[C@H](N(C)C)[C@H]2O)[C@](C)(OC/C=C/c2cnc3ccccc3c2)C[C@@H](C)C(=O)[C@H](C)[C@H]2NC(=O)O[C@@]21C` [ABT-773], the “activity against Gram-positive pathogens” value in the data set on Gram-positive pathogens is on record as “excellent activity”.
